Data reported in ChEMBL document CHEMBL1130970, “Design and synthesis of a water-soluble taxol analogue: taxol-sialyl conjugate” (Bioorg Med Chem Lett, 1998).
Values after ≈ are worked out from the molar mass of the structure shown.

Assays:
A-427 [1] = assay: Inhibitory concentration in human lung carcinoma A427/VCR cell line; assay type: functional, cell-based
A-427 [2] = assay: Inhibitory concentration in human lung carcinoma A427 cell line; assay type: functional, cell-based
[3] = Solubility was determined; assay type: physicochemical
Sus scrofa = species on record: Sus scrofa; assay: Concentration that induces microtubule assembly (tubulin obtained from porcine brain) by 50% in the absence of GTP; assay type: functional

Row | Structure (SMILES) | IC50 (A-427 [1]) [nM] | IC50 (A-427 [2]) [nM] | solubility [3] [mg/mL] | ED50 (Sus scrofa) [nM]
1 | CC(=O)NC1C(O)CC(OCCOCCOCCNC(=O)O[C@H]2C[C@H]3OC[C@@]3(OC(C)=O)C3[C@H](OC(=O)c4ccccc4)[C@]4(O)C[C@H](OC(=O)[C@H](O)[C@@H](NC(=O)c5ccccc5)c5ccccc5)C(C)=C([C@@H](OC(C)=O)C(=O)[C@@]32C)C4(C)C)(C(=O)O)OC1[C@H](O)[C@@H](O)CO (stereo not given in full) | 1000 | 100 | 28 (≈ 21.2 mM) | 3860
2 | CC(=O)O[C@H]1C(=O)[C@@]2(C)[C@H]([C@H](OC(=O)c3ccccc3)[C@]3(O)C[C@H](OC(=O)[C@H](O)[C@@H](NC(=O)c4ccccc4)c4ccccc4)C(C)=C1C3(C)C)[C@]1(OC(C)=O)CO[C@@H]1C[C@@H]2O [PACLITAXEL] |  |  |  | 860
